Data published in ChEMBL document CHEMBL1201862, “PubChem BioAssay data set” (2004).
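A five-concentration, 48-hour dose response in 96-well plates underlies each endpoint, interpolated linearly between surrounding concentrations. The concentration for 50% growth inhibition is given as GI50.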 Calls of active or inactive are those of the source. Rule as the data show it: active = GI50 up to about 1.1 µM and inactive = higher.

Assays:
Test in all cases: NCI anticancer screen, dose series, 48 h
[1] = test system: OVCAR-3
[2] = test system: CCRF-CEM
[3] = test system: Malme-3M
[4] = test system: OVCAR-4
[5] = test system: CAKI-1
[6] = test system: LXFL 529
[7] = test system: SNB-19
[8] = test system: A498
[9] = test system: 786-0
[10] = test system: HOP-18
[11] = test system: HOP-62
[12] = test system: HOP-92
[13] = test system: M19-MEL
[14] = test system: COLO 205
[15] = test system: UACC-62
[16] = test system: ACHN
[17] = test system: HCC 2998
[18] = test system: NCI-H460
[19] = test system: DMS-273
[20] = test system: HCT-15
[21] = test system: SNB-78
[22] = test system: M14
[23] = test system: TK-10
[24] = test system: SF-268
[25] = test system: A549
[26] = test system: SW-620
[27] = test system: SK-MEL-2
[28] = test system: SK-MEL-28
[29] = test system: SF-295
[30] = test system: EKVX
[31] = test system: NCI-H23
[32] = test system: UO-31
[33] = test system: SN12C
[34] = test system: UACC-257
[35] = test system: SK-OV-3
[36] = test system: KM-20L2
[37] = test system: K562
[38] = test system: SK-MEL-5
[39] = test system: HT-29
[40] = test system: NCI-H522
[41] = test system: HL-60
[42] = test system: LOX IMVI
[43] = test system: IGROV-1
[44] = test system: U-251
[45] = test system: SNB-75
[46] = test system: OVCAR-5
[47] = test system: DLD-1
[48] = test system: OVCAR-8
[49] = test system: SF-539
[50] = test system: KM12
[51] = test system: HCT-116
[52] = test system: MOLT-4
[53] = test system: RPMI-8226
[54] = test system: DMS-114
[55] = test system: NCI-H226
[56] = test system: XF498
[57] = test system: SR
[58] = test system: RXF 393

N#C/C(=C\c1ccc(O)c(O)c1)c1c(C#N)c(N)nn1-c1ccccc1
GI50 [1]: 2.04 µM (inactive)
GI50 [2]: 4.11 µM (inactive)
GI50 [3]: 4.95 µM (inactive)
GI50 [4]: 17.2 µM (inactive)
GI50 [5]: 1.59 µM (inactive)
GI50 [6]: 8.65 µM (inactive)
GI50 [7]: 7.19 µM (inactive)
GI50 [8]: 2.76 µM (inactive)
GI50 [9]: 7.67 µM (inactive)
GI50 [10]: 1.04 µM (active)
GI50 [11]: 10 µM (inactive)
GI50 [12]: 8.71 µM (inactive)
GI50 [13]: 7.4 µM (inactive)
GI50 [14]: 24.1 µM (inactive)
GI50 [15]: 3.81 µM (inactive)
GI50 [16]: 8 µM (inactive)
GI50 [17]: 9.66 µM (inactive)
GI50 [18]: 10.8 µM (inactive)
GI50 [19]: 6.92 µM (inactive)
GI50 [20]: 11.7 µM
GI50 [21]: 14.6 µM (inactive)
GI50 [22]: 9.29 µM (inactive)
GI50 [23]: 21.8 µM (inactive)
GI50 [24]: 7.38 µM (inactive)
GI50 [25]: 10.1 µM (inactive)
GI50 [26]: 12.8 µM (inactive)
GI50 [27]: 13 µM (inactive)
GI50 [28]: 20 µM (inactive)
GI50 [29]: 15.7 µM (inactive)
GI50 [30]: 7.45 µM (inactive)
GI50 [31]: 7.43 µM (inactive)
GI50 [32]: 6.47 µM (inactive)
GI50 [33]: 10.3 µM (inactive)
GI50 [34]: 15.5 µM (inactive)
GI50 [35]: 12.9 µM (inactive)
GI50 [36]: 38.1 µM (inactive)
GI50 [37]: 3.94 µM (inactive)
GI50 [38]: 6.58 µM (inactive)
GI50 [39]: 22 µM (inactive)
GI50 [40]: 3.32 µM (inactive)
GI50 [41]: 7.85 µM (inactive)
GI50 [42]: 5.05 µM (inactive)
GI50 [43]: 4.17 µM (inactive)
GI50 [44]: 5.36 µM (inactive)
GI50 [45]: 13.3 µM (inactive)
GI50 [46]: 33 µM (inactive)
GI50 [47]: 18.5 µM (inactive)
GI50 [48]: 5.82 µM (inactive)
GI50 [49]: 6.64 µM (inactive)
GI50 [50]: 15.6 µM (inactive)
GI50 [51]: 5.48 µM (inactive)

COc1cc(C(C)O)c[n+](CCC2CNc3ccccc32)c1 (stereo unspecified)
GI50 [1]: 26.1 µM (inactive)
GI50 [2]: > 100 µM (inactive)
GI50 [3]: > 100 µM (inactive)
GI50 [4]: > 100 µM (inactive)
GI50 [5]: > 100 µM (inactive)
GI50 [6]: > 100 µM (inactive)
GI50 [7]: > 100 µM (inactive)
GI50 [8]: > 100 µM (inactive)
GI50 [9]: > 100 µM (inactive)
GI50 [52]: > 100 µM (inactive)
GI50 [11]: > 100 µM (inactive)
GI50 [13]: > 100 µM (inactive)
GI50 [53]: > 100 µM (inactive)
GI50 [14]: 43.3 µM (inactive)
GI50 [15]: > 100 µM (inactive)
GI50 [16]: > 100 µM (inactive)
GI50 [17]: > 100 µM (inactive)
GI50 [18]: > 100 µM (inactive)
GI50 [19]: > 100 µM (inactive)
GI50 [20]: > 100 µM
GI50 [22]: > 100 µM (inactive)
GI50 [54]: 91.4 µM (inactive)
GI50 [55]: 73.1 µM (inactive)
GI50 [24]: 27 µM (inactive)
GI50 [25]: > 100 µM (inactive)
GI50 [26]: > 100 µM (inactive)
GI50 [27]: > 100 µM (inactive)
GI50 [56]: > 100 µM (inactive)
GI50 [29]: > 100 µM (inactive)
GI50 [30]: 33 µM (inactive)
GI50 [31]: > 100 µM (inactive)
GI50 [32]: > 100 µM (inactive)
GI50 [33]: > 100 µM (inactive)
GI50 [34]: > 100 µM (inactive)
GI50 [36]: 43 µM (inactive)
GI50 [37]: > 100 µM (inactive)
GI50 [57]: > 100 µM (inactive)
GI50 [38]: > 100 µM (inactive)
GI50 [39]: 71.6 µM (inactive)
GI50 [40]: > 100 µM (inactive)
GI50 [41]: > 100 µM (inactive)
GI50 [42]: > 100 µM (inactive)
GI50 [43]: > 100 µM (inactive)
GI50 [44]: > 100 µM (inactive)
GI50 [45]: > 100 µM (inactive)
GI50 [47]: > 100 µM (inactive)
GI50 [48]: > 100 µM (inactive)
GI50 [49]: > 100 µM (inactive)
GI50 [50]: > 100 µM (inactive)
GI50 [51]: > 100 µM (inactive)

CC(NC1CCCC[C@H]1O)c1ccccc1 (stereo partly specified)
GI50 [3]: > 100 µM (inactive)
GI50 [4]: > 100 µM (inactive)
GI50 [5]: > 100 µM (inactive)
GI50 [6]: > 100 µM (inactive)
GI50 [7]: > 100 µM (inactive)
GI50 [9]: > 100 µM (inactive)
GI50 [10]: > 100 µM (inactive)
GI50 [52]: > 100 µM (inactive)
GI50 [11]: > 100 µM (inactive)
GI50 [12]: > 100 µM (inactive)
GI50 [13]: > 100 µM (inactive)
GI50 [53]: > 100 µM (inactive)
GI50 [14]: > 100 µM (inactive)
GI50 [15]: > 100 µM (inactive)
GI50 [16]: > 100 µM (inactive)
GI50 [17]: > 100 µM (inactive)
GI50 [18]: > 100 µM (inactive)
GI50 [21]: > 100 µM (inactive)
GI50 [22]: > 100 µM (inactive)
GI50 [55]: > 100 µM (inactive)
GI50 [25]: > 100 µM (inactive)
GI50 [26]: > 100 µM (inactive)
GI50 [27]: > 100 µM (inactive)
GI50 [28]: > 100 µM (inactive)
GI50 [32]: > 100 µM (inactive)
GI50 [34]: > 100 µM (inactive)
GI50 [35]: > 100 µM (inactive)
GI50 [36]: > 100 µM (inactive)
GI50 [38]: > 100 µM (inactive)
GI50 [39]: > 100 µM (inactive)
GI50 [43]: > 100 µM (inactive)
GI50 [44]: > 100 µM (inactive)
GI50 [45]: > 100 µM (inactive)
GI50 [46]: > 100 µM (inactive)
GI50 [47]: > 100 µM (inactive)
GI50 [51]: > 100 µM (inactive)

CCCCCCCCC(=O)N(C)C1C2CN3CCC(O2)C13 (stereo unspecified)
GI50 [1]: > 100 µM (inactive)
GI50 [2]: > 100 µM (inactive)
GI50 [3]: > 100 µM (inactive)
GI50 [4]: > 100 µM (inactive)
GI50 [5]: 48.9 µM (inactive)
GI50 [6]: > 100 µM (inactive)
GI50 [7]: > 100 µM (inactive)
GI50 [8]: > 100 µM (inactive)
GI50 [9]: > 100 µM (inactive)
GI50 [10]: > 100 µM (inactive)
GI50 [52]: > 100 µM (inactive)
GI50 [11]: > 100 µM (inactive)
GI50 [13]: > 100 µM (inactive)
GI50 [53]: > 100 µM (inactive)
GI50 [14]: > 100 µM (inactive)
GI50 [15]: > 100 µM (inactive)
GI50 [16]: > 100 µM (inactive)
GI50 [17]: > 100 µM (inactive)
GI50 [18]: > 100 µM (inactive)
GI50 [19]: > 100 µM (inactive)
GI50 [20]: > 100 µM
GI50 [21]: > 100 µM (inactive)
GI50 [22]: > 100 µM (inactive)
GI50 [54]: > 100 µM (inactive)
GI50 [23]: > 100 µM (inactive)
GI50 [55]: > 100 µM (inactive)
GI50 [24]: > 100 µM (inactive)
GI50 [25]: > 100 µM (inactive)
GI50 [26]: > 100 µM (inactive)
GI50 [27]: > 100 µM (inactive)
GI50 [28]: > 100 µM (inactive)
GI50 [29]: > 100 µM (inactive)
GI50 [30]: > 100 µM (inactive)
GI50 [58]: > 100 µM (inactive)
GI50 [31]: > 100 µM (inactive)
GI50 [32]: > 100 µM (inactive)
GI50 [33]: > 100 µM (inactive)
GI50 [34]: > 100 µM (inactive)
GI50 [35]: > 100 µM (inactive)
GI50 [36]: > 100 µM (inactive)
GI50 [37]: > 100 µM (inactive)
GI50 [38]: > 100 µM (inactive)
GI50 [39]: > 100 µM (inactive)
GI50 [40]: > 100 µM (inactive)
GI50 [41]: > 100 µM (inactive)
GI50 [42]: > 100 µM (inactive)
GI50 [43]: > 100 µM (inactive)
GI50 [44]: > 100 µM (inactive)
GI50 [45]: 75.7 µM (inactive)
GI50 [46]: > 100 µM (inactive)
GI50 [47]: > 100 µM (inactive)
GI50 [49]: > 100 µM (inactive)
GI50 [50]: > 100 µM (inactive)
GI50 [51]: > 100 µM (inactive)
